For data set [1], the system named is red blood cells. As to conditions: ref [35], cited from earlier work; for Hemolysis: red blood cells, 200 µM peptide. The text has this: Furthermore, it maintained its antifungal activity in physiological salt concentrations and at low pH values.
The test system of data set [2] is C. albicans (CCARM 14001). The data set is described as follows: microbe, parasite or virus in culture. Type of data set: cell-based, Candida albicans. As to conditions: fluconazole-resistant strain CCARM 14001, 24 to 30 h, 28 °C, read-out: Minimum Inhibitory Concentrations.
The test system of data set [3] is C. rugosa. The data set is described as follows: microbe, parasite or virus in culture. Format: cell-based, Candida rugosa. As to conditions: read-out: Minimum inhibitory concentration. As to the method: (§1) The fungal strains C. albicans (KCTC 7270), C. catenulate (7642), C. intermidia (7234), C. rugosa (7324), C. glabrata (7219) and C. melibiosica (KCTC 7631) were cultured at 28 °C in appropriate media. Fungal cells (final concentration 2 × 10^4 cells/ mL) in 50 μL of YPD media (dextrose 2%, peptone 1% and yeast extract 0.5%) were seeded in each well of a microtiter plate containing 50 μL of two-fold serially diluted peptides in phosphate buffered saline. After incubation for 24 to 30 h at 28 °C, the lowest concentration of the peptides inhibiting the growth of the fungi was microscopically determined to be the minimum inhibitory concentrations (MICs). The effect of salt concentration on the antifungal activity of the peptides was tested by determining the MICs in the presence of NaCl and MgCl2. Fixed concentrations of NaCl (50, 100 and 150 mM) or MgCl2 (1, 2 and 5 mM) were added to the sodium phosphate buffer (pH 7.2). The effect of pH on the antifungal activity of the peptides was tested by determining peptide MICs in the presence of sodium phosphate buffer at a variety of pH values.

In data set [4] the test system is C. melibiosica. Nature of the data set: microbe, parasite or virus in culture. Type of data set: cell-based, Candida melibiosica. To be noted: read-out: Minimum inhibitory concentration. The protocol:
as §1

The test system of data set [5] is C. intermedia. The data set is described as follows: microbe, parasite or virus in culture. Type of data set: cell-based, Candida intermedia. To be noted: read-out: Minimum inhibitory concentration. The protocol:
as §1

For data set [6], the system named is C. catenulate. The data set is described as follows: microbe, parasite or virus in culture. Type of data set: cell-based, Candida catenulate. To be noted: read-out: Minimum inhibitory concentration. As to the method: as §1
In data set [7] the test system is C. glabrata. Nature of the data set: microbe, parasite or virus in culture. Format: cell-based, Candida glabrata. To be noted: read-out: Minimum inhibitory concentration. The protocol: as §1
The subject of data set [8] is C. albicans (CCARM 14007). The data set is described as follows: microbe, parasite or virus in culture. Type of data set: cell-based, Candida albicans. As to conditions: read-out: Minimum Inhibitory Concentrations.
The test system of data set [9] is C. albicans (CCARM 140020). Nature of the data set: microbe, parasite or virus in culture. Format: cell-based, Candida albicans. To be noted: read-out: Minimum Inhibitory Concentrations.
Data set [10] relates to RNA obtained from C. albicans. Nature of the data set: RNA gel retardation assay. Type of data set: binding, Candida albicans. To be noted: Supplementary Figure S2. As to the method: Briefly, RNA was extracted from C. albicans using the TRI reagent (Molecular Research Center, Cincinnati, OH, USA) according to the manufacturer’s instructions. Purified RNA was collected and resuspended in RNAse-free water. Then, the yeast RNA (10 µg) was mixed with peptide at different concentrations, 2.5–30 µg in 15 µL of 10 mM Tris, 1 mM EDTA buffer (pH 8.0). After 10 min incubation at room temperature, the solution was subjected to electrophoresis on a 1% agarose gel in Tris Borate EDTA (TBE) buffer. Gel retardation was visualized under UV illumination using a Bio-Rad Gel Documentation system.

Data set [11] deals with C. albicans (KCTC 7270). The data set is described as follows: microbe, parasite or virus in culture. To be noted: Candida albicans, KCTC7270, 2 × 10^4 cells/mL, YPD/PBS, 24 to 30 h, 28 °C, read-out: Minimum Inhibitory Concentrations. Type of data set: cell-based, Candida albicans. As to the method:
as §1

The text below walks through data of paper PMC7285485, “Antifungal and Antibiofilm Activities and the Mechanism of Action of Repeating Lysine-Tryptophan Peptides against Candida albicans” (Microorganisms, 2020).

Like-named read-outs stand apart in the source and are kept apart here. Ends that are not written are not given here. Peptide text beside a SMILES is read from it. Bounds are passed on as bounds.

KWKWKW-NH2 [KW3, KWKWKW-NH2]: the Hemolysis in data set [1] is 0%. Also, the MIC in data set [2] is above 128 µM; in data set [3], 32 µM; in [4], 32 µM; in [5], 32 µM; in data set [6], 16 µM; in [7], 32 µM.

For the compound KWKWKWKW-NH2 [KW4], the Hemolysis in [1] is 8%. Also, the “Hemolytic activity” value in [1] was “no hemolytic activity”. Besides, the MIC is recorded as 32 µM in data set [2]; 8 µM in [3]; 8 µM in data set [4]; 8 µM in [5]; 32 µM in data set [8] (CCARM 14007); 8 µM in data set [6]. In addition, the results for the MIC in [7] and in [9] (CCARM 140020) were 8 µM and 32 µM, respectively.

In the case of KWKWKWKWKW-NH2 [KW5], the Hemolysis in data set [1] is 71%. The MIC in data set [2] was determined as 8 µM; in [3], 8 µM; in data set [4] it was 8 µM; in data set [5], 8 µM; in data set [8] (CCARM 14007), 16 µM; in data set [6], 8 µM. Also, the MIC in data set [7] worked out at 4 µM; in data set [9] (CCARM 140020) it was 8 µM.

Take `NCCCC[C@H](NC(=O)[C@H](Cc1c[nH]c2ccccc12)NC(=O)[C@@H](N)CCCCN)C(=O)N[C@@H](Cc1c[nH]c2ccccc12)C(N)=O` [KW2, KWKW-NH2] (H-KWKW-NH2): in data set [1], the Hemolysis is listed as 0%. Besides, the MIC in data set [2], in [3], in data set [4], in data set [5], in data set [6] and in data set [7] was above 128 µM each time.

With “indolicidin (ILPWKWPWWPWRR; ends and bridges not checked; UniProt P33046 131-143, looked up) [AMP which can act intracellularly]”, the “RNA band shift in gel retardation” value in [10] is recorded as “did cause a similar band shift”.

As to magainin II, the “RNA band shift in gel retardation” value in data set [10] was “did not cause a band shift”.

Turning to `OC(Cn1cncn1)(Cn1cncn1)c1ccc(F)cc1F` [Fluconazole, fluconazole, reference compound], the MIC in data set [2] (Candida albicans, CCARM14001) was above 128 µM; in data set [3] (Diutina rugosa, C. rugosa), 16 µM; in data set [4] (Helenozyma melibiosica, C. melibiosica), 16 µM; in data set [5] (Sungouiella intermedia, C. intermedia), 16 µM; in data set [8] (Candida albicans, CCARM14007, fluconazole-resistant strain CCARM 14007, 24 to 30 h, 28 °C) it was above 128 µM; in data set [11], 16 µM. Moreover, the MIC in data set [6] (Candida, C. catenulate) is 16 µM; in data set [7] (Nakaseomyces glabratus, C. glabrata) it was 8 µM; in data set [9] (Candida albicans, CCARM140020, fluconazole-resistant strain CCARM 140020, 24 to 30 h, 28 °C) it was above 128 µM.
